Reference: patent publication US20260184708A1, “PYRIDAZINONES AND METHODS OF USE THEREOF” (GFB (ABC), LLC, priority 2017, published 2026)
Read-outs that look alike come from different tables or passages of the source.

Tests used:
[1] = target: T1, TRPC5 (Homo sapiens, UniProt Q9UL62); assay: TRPC5 fluorescence assay, membrane potential dye, flexstation (FLEX); format: cell-based; details: Table 6; HEK293 cells overexpressing TRPC5
T1 construct: expressed in transfected cells; host or cells: HEK 293
T1 sequence (Q9UL62 1-973): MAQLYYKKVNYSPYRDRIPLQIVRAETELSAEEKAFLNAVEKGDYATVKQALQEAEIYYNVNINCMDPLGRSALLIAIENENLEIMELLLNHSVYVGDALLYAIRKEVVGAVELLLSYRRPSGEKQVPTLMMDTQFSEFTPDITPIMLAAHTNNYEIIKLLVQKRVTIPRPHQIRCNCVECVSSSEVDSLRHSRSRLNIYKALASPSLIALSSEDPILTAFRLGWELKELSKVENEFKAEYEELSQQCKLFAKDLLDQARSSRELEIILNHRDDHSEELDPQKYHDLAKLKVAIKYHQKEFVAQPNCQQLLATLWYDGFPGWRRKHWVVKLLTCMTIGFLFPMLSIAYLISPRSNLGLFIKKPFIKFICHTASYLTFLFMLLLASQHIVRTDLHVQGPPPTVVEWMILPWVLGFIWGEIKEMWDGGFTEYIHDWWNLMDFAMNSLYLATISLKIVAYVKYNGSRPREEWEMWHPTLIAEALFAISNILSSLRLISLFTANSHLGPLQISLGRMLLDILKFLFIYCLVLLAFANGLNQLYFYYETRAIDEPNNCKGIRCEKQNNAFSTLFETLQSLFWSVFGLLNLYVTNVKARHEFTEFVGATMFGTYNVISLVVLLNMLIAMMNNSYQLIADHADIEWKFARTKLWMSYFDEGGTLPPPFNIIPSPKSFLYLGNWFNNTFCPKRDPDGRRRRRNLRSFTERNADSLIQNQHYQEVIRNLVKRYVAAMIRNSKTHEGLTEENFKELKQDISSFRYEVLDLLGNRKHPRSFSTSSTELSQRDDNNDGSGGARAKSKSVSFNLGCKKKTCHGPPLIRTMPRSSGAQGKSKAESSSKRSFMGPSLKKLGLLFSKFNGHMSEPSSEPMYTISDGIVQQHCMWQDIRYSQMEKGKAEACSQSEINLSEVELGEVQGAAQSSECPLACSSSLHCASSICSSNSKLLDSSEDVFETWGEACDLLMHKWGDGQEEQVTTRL
Procedure: HEK 293 cells expressing human TRPC5 cells were trypsinised, counted and seeded in black, clear-bottomed 96-well plates at a density of 50,000 cells per well and incubated overnight. Next day, the cells were loaded with membrane potential dye. Dye solution was made up according to the manufacturer's instructions in HEPES buffered Hank's balanced salt solution (HBSS). Dye solution (10 μL) was added to the wells and incubated at 37° C. for 1 hour. The test compounds and standard inhibitors were added to the wells and incubated at room temperature for 10 minutes. The plates were then placed in the flexstation and fluorescence monitored every 1.52 seconds. After 20 seconds, 10 μL of the appropriate standard agonist was added and the fluorescence monitored for 2 minutes at ex/emm: 530 nm/565 nm.

[2] = target: T2, TRPC4 (Homo sapiens, UniProt Q9UBN4); assay: TRPC4 FLIPR Assay (HEK-TREx hTRPC4, Englerin A stimulation); format: cell-based; details: HEK-TREx hTRPC4
T2 construct: expressed in transfected cells; host or cells: HEK-TREx (HekTrex-293), cell line ICLN-1694, tetracycline-induced
T2 sequence (Q9UBN4 1-982 isoform Q9UBN4-5): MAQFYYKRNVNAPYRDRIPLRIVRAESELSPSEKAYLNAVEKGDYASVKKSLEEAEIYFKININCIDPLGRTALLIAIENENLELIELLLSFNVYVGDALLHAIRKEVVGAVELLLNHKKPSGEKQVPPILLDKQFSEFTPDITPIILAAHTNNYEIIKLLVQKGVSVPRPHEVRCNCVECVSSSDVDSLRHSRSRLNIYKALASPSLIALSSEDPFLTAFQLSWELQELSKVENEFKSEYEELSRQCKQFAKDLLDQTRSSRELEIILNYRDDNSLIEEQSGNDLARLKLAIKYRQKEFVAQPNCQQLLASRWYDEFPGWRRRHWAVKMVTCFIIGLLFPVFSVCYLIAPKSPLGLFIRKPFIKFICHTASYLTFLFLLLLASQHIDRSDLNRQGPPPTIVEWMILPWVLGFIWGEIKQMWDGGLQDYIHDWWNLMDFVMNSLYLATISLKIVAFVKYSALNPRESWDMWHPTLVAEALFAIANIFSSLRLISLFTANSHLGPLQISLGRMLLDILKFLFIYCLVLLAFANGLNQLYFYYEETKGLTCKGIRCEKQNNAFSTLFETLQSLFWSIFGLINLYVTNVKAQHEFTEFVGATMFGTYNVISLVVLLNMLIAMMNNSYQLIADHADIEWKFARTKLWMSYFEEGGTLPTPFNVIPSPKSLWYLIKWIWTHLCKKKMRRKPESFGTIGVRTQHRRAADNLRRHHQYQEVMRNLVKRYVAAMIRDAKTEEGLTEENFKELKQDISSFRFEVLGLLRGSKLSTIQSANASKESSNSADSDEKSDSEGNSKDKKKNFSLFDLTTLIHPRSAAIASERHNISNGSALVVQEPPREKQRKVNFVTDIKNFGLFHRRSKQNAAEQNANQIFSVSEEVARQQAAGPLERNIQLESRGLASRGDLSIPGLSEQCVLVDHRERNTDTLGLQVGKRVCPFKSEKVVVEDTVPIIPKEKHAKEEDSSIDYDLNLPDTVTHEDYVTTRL
Procedure: FLIPR Assay Buffer (Earls Balanced Salt Solution (EBSS)) was prepared as follows:
10-point dose response curves were generated using the Echo-550 acoustic dispenser. Compound source plates were made by serially diluting compound stocks to create 10 mM, 1 mM, and 0.1 mM solutions in DMSO into Echo certified LDV plates. The Echo then serially spotted 100% DMSO stock solutions into source dose response plates to generate a 4-fold dilution scheme. 100% DMSO was added to the spotted dose response plates to bring the final volume to 5 μl. […] of the dose response stock plate was then spotted into pre-incubation and stimulation assay plates. […] of pre-incubation buffer and 100 μl of stimulation buffer was then added to the plates resulting in a final assay test concentration range of 30 μM to 0.0001 μM with a final DMSO concentration of 0.3%.
Experimental Methods: Cells expressing TRPC4 were plated onto 384 well, black pdl-coated microplates and maintained in TRPC4 growth media the day prior to use for experiments. TRPC4 expression was induced by the application of 1 μg/ml tetracycline at the time of plating. […] Cells were incubated at room temperature, protected from light, for 60-90 minutes. After the incubation period, the dye was removed and replaced with 10 μl of EBSS. Cell, pre-incubation and stimulation plates were loaded onto the FLIPR-II and the assay was initiated. The FLIPR measured a 10 second baseline and then added 10 μl of 2× compounds (or controls). Changes in fluorescence were monitored for an additional 5 minutes. After a 5 minute pre-incubation, 20 μl of 2× Englerin A (with 1× compound or controls) was added to the cell plate. The final Engerlin A stimulation concentration in the assay is 100 nM. After the Englerin A addition, changes in fluorescence were monitored for an additional 5 minutes.
Test Agent Effect: Test agent modulation of TRPC4 calcium response was determined as follows. After the Englerin A, fluorescence was monitored for a 5 minute period. The maximum relative fluorescence response (minus the control response of […] of the control inhibitor) was captured and exported from the FLIPR. Test agent effect was calculated as % inhibition using the following formula: % inhibition=((RFU TEST AGENT−Plate Average RFU REF INHIB)/(Plate Average RFU CONTROL−Plate Average RFU REF INHIB))×100

[3] = Table 8, read-out: TRPC4 FLIPR IC50

Compound | IC50 [1] [nM] | IC50 [2, 3] [nM] | further results
O=c1[nH]ncc(N2CCc3nn(Cc4ccc(F)cc4C(F)(F)F)cc3C2)c1Cl | 0.01 to 1000 |  | 
CC[C@H](c1cccnc1)n1nnc2c1CCN(c1cn[nH]c(=O)c1Cl)C2 | 1000 to 5000 |  | 
O=c1[nH]ncc(N2CCc3c(cnn3Cc3ccc(F)cc3C(F)(F)F)C2)c1Cl [drawing 907] | 0.01 to 1000 |  | 
CN(c1ncc2c(n1)CN(c1cn[nH]c(=O)c1Cl)C2)c1ccc(F)cc1Cl [drawing 1003] |  | 0.01 to 1000 | 
CCN(c1ncc2c(n1)CN(c1cn[nH]c(=O)c1Cl)C2)c1ccccc1Cl [drawing 1004] |  | 0.01 to 1000 | 
O=c1[nH]ncc(N2CCc3c(Cc4ccc(F)cc4C(F)(F)F)n[nH]c3C2)c1Cl [drawing 1005] |  | 0.01 to 1000 | 
CCc1ncccc1N(C)c1ncc2c(n1)CN(c1cn[nH]c(=O)c1Cl)C2 [drawing 1006] |  | 0.01 to 1000 | 
Cc1ccccc1CN1CCN(c2cn[nH]c(=O)c2Cl)CC1=O [drawing 1008] |  | 0.01 to 1000 | 
O=c1[nH]ncc(N2CCN(Cc3ccccc3Cl)CC2)c1Cl [drawing 1010] |  | 1000 to 5000 | 
Cc1cc(F)ccc1CN1CCN(c2cn[nH]c(=O)c2Cl)CC1 [drawing 1012] |  | 5000 to 10000 | 
O=C1CN(c2cn[nH]c(=O)c2Cl)CCN1Cc1ccc(F)cc1Cl [drawing 1013] |  | 0.01 to 1000 | 
O=C1CN(c2cn[nH]c(=O)c2Cl)CCN1Cc1ccc(F)cc1F [drawing 1014] |  | 1000 to 5000 | 
C[C@@H]1CN(Cc2ccccc2C(F)(F)F)CCN1c1cn[nH]c(=O)c1Cl [drawing 1016] |  | 5000 to 10000 | 
Cc1ncccc1CN1CCN(c2cn[nH]c(=O)c2Cl)CC1 [drawing 1017] |  | 1000 to 5000 | 
Cc1cc(Cl)ccc1CN1CCN(c2cn[nH]c(=O)c2Cl)CC1=O [drawing 1018] |  | 1000 to 5000 | 
Cc1ccccc1[C@H](C)N1CCN(c2cn[nH]c(=O)c2Cl)CC1=O [drawing 1020] |  | 10000 to 500000 | 
COc1cc(F)ccc1CN1CCN(c2cn[nH]c(=O)c2Cl)CC1=O [drawing 1021] |  | 1000 to 5000 | 
CN1CCN(Cc2nn(Cc3ccccc3C(F)F)c3c2CN(c2cn[nH]c(=O)c2Cl)CC3)C(=O)C1 [drawing 1091] |  |  | IC50 ([2]; Table 10, read-out: TRPC4-FLIPR ICSO): 0.01 to 1000 nM

Further lines, with some results ahead:

IC50 [1] [nM] | IC50 [2, 3] [nM] | Compound | further results
1000 to 5000 |  | Cc1ncccc1Cn1cnc2c1CN(c1cn[nH]c(=O)c1Cl)CC2 | 
0.01 to 1000 |  | Cc1cccc(C)c1Cn1cnc2c1CCN(c1cn[nH]c(=O)c1Cl)C2 | 
1000 to 5000 |  | O=c1[nH]ncc(N2CCc3nn(-c4ccccc4OC(F)(F)F)cc3C2)c1Cl | 
5000 to 10000 |  | CCc1cccnc1Cn1cnc2c1CN(c1cn[nH]c(=O)c1Cl)CC2 | 
1000 to 5000 |  | O=c1[nH]ncc(N2CCc3c(cnn3-c3ccccc3C(F)(F)F)C2)c1Cl | 
10000 to 500000 |  | Cc1nc2c(n1Cc1ccccc1C(F)(F)F)CCN(c1c(Cl)cn[nH]c1=O)C2 | 
10000 to 500000 |  | O=c1[nH]ncc(N2CCc3ncn(Cc4cnccc4C(F)(F)F)c3C2)c1Cl | 
1000 to 5000 |  | N#Cc1c(N2CCc3ncn(Cc4cncc(F)c4)c3C2)cn[nH]c1=O | 
0.01 to 1000 |  | N#Cc1c(N2CCc3c(ncn3Cc3cncc(F)c3)C2)cn[nH]c1=O | 
0.01 to 1000 |  | N#Cc1c(N2CCc3ncn(Cc4ccccc4C(F)F)c3C2)cn[nH]c1=O | 
0.01 to 1000 |  | C[C@H](c1ccccc1C(F)(F)F)n1nnc2c1CCN(c1cn[nH]c(=O)c1C#N)C2 | 
0.01 to 1000 |  | O=c1[nH]ncc(N2CCc3c(nnn3Cc3cccnc3CC(F)(F)F)C2)c1Cl | 
0.01 to 1000 |  | C[C@H](c1ccccc1C(F)(F)F)n1nnc2c1CCN(c1cn[nH]c(=O)c1Cl)C2 | 
0.01 to 1000 |  | O=c1[nH]ncc(N2CCc3c(nnn3Cc3ccc(F)cc3C(F)F)C2)c1Cl | 
0.01 to 1000 |  | O=c1[nH]ncc(N2CCc3c(nnn3Cc3ccccc3OC(F)F)C2)c1Cl | 
1000 to 5000 |  | CCOc1cccc(Cn2cnc3c2CCN(c2cn[nH]c(=O)c2Cl)C3)n1 | 
1000 to 5000 |  | O=c1[nH]ncc(N2CCc3c(cnn3Cc3cccnc3CC(F)(F)F)C2)c1Cl | 
5000 to 10000 |  | CC(c1ccccc1C(F)(F)F)n1nnc2c1CCN(c1cn[nH]c(=O)c1C#N)C2 (stereo not drawn) | 
1000 to 5000 |  | O=c1[nH]ncc(N2CCc3ncn(-c4ccccc4C(F)(F)F)c3C2)c1Cl [drawing 869] | 
1000 to 5000 |  | N#Cc1ccccc1-n1cnc2c1CN(c1cn[nH]c(=O)c1C#N)CC2 [drawing 898] | 
0.01 to 1000 |  | C[C@@H](c1ccccc1C(F)(F)F)n1nnc2c1CCN(c1cn[nH]c(=O)c1Cl)C2 [drawing 908] | 
 | 0.01 to 1000 | CS(=O)(=O)c1nc2c(n1Cc1ccccc1C(F)(F)F)CCN(c1cn[nH]c(=O)c1Cl)C2 [drawing 1002] | 
 | 0.01 to 1000 | O=C1CN(c2cn[nH]c(=O)c2Br)CCN1Cc1cccc2ccccc12 [drawing 1009] | 
 | 0.01 to 1000 | O=C1CN(c2cn[nH]c(=O)c2Cl)CCN1Cc1ccccc1OC(F)(F)F [drawing 1015] | 
